For 25 molecules, IC50 results are on record in patent publication US8163778B2 (Hoffmann-LA Roche Inc., priority 2007, dated 2012).

The structures appear in SMILES notation.

The test addresses T1, human liver FBPase (Homo sapiens, UniProt P09467).
T1 construct: made in house; host or cells: E. coli
T1 sequence (P09467 2-338 limits assumed): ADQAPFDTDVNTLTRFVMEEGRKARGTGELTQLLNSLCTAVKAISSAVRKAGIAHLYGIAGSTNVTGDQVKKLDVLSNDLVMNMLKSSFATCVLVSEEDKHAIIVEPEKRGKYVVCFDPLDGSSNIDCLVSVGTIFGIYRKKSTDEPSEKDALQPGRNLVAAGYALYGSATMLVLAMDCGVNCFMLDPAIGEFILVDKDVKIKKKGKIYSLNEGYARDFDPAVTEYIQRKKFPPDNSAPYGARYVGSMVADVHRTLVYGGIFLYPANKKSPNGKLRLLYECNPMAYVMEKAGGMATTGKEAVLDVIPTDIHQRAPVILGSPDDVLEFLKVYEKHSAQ
Kind of test: FBPase assay (malachite green phosphate release). Format: biochemical. The note with it: recombinant human liver FBPase, 50 μM fructose-1,6-bisphosphate. On the procedure:
The following tests were carried out for evaluating the inhibitory activity of the compounds of the present invention against human liver FBPase (Swissprot Data base reference PO9467, entry F16P_HUMAN).
Human liver FBPase cDNA (NM_000507) was purchased from Origene Technologies, Inc, subcloned in a vector for expression in E. Coli., and sequenced. Recombinant human liver FBPase (hlFBPase) was purified according to the following protocol that uses heat denaturation similarly to that described by El-Maghrabi et al. [El-Maghrabi, M. R. et al. “Isolation of a human liver fructose-1,6-bisphosphatase cDNA and expression of the protein in Escherichia coli.” J Biol Chem 268:9466-9472, 1993.]. Briefly, E. coli cells, transiently expressing very high levels of soluble and active human liver FBPase, were suspended in 20 mM Tris-HCl pH 7.5, 1 mM EDTA, 1 mM DTT and were lysed by French press. The soluble extract was heat denatured at 65° C. for 5 min, and insoluble, denatured proteins were removed by centrifugation. The extract was then applied to a BioRad Macro-Prep High Q column equilibrated with 20 mM Tris-HCl pH 7.5, 1 mM EDTA, 1 mM DTT and the flow-through (containing FBPase activity) was collected and applied to a BioRad Macro-Prep HS column equilibrated with 20 mM HEPES pH 7.2, 1 mM DTT. A gradient of increasing NaCl concentration was then applied to the HS column and fractions were collected. Fractions containing active FBPase were pooled and further purified by size exclusion chromatography on a Sephacryl S200 column equilibrated in 20 mM Tris-HCl pH 7.5, 150 mM NaCl, 1 mM EDTA, 1 mM DTT. Purity of the enzyme preparation was >90% as assessed by Mass spectrometry.
Recombinant human liver FBPase (hlFBPase) activity was assayed through measuring the inorganic phosphate release that results from the hydrolysis of Fructose-1,6-bisphosphate by the enzyme. As described by Baykov A. A. et al. in [Baykov A. A et al., “Malachite Green procedure for orthophosphate determination and its use in alkaline phosphatase-based enzyme immunoassays”. Anal. Biochem., 171:266-270, 1988], inorganic phosphate can be readily quantified by spectrophotometry at 620 nm after complexation with ammonium molybdate/malachite green reagent. Enzymatic reaction was carried out with modifications of the procedure described by Wright S. W. et al. [Wright S. W. et al., “Anilinoquinazoline inhibitors of Fructose-1,6-bisphosphatase bind to a novel allosteric site: synthesis, in vitro characterization, and X-ray crystallography”. J. Med. Chem. 45:3865-3877, 2002]. Specifically, the reaction was carried out in 96 well plates in a final volume of 100 μl in the presence or in the absence of allosteric inhibitors. Reaction was started adding 25 ng of hlFBPase to the reaction mixture containing 50 mM HEPES-KOH buffer pH 7.2, 2 mM MgCl2, 2 mM EDTA, 1 mM DTT, 50 μM fructose-1,6-bisphosphate and 1% DMSO. After 50 minutes incubation at room temperature, the phosphate released was allowed to form a colored complex for 10 min by adding 150 μl of ammonium molybdate/malachite green reagent containing 0.03% malachite green, 0.2% ammonium molybdate, 0.05% Triton X-100 and 0.7 M H2SO4 in water that was stirred for 30 min at room temperature and filtered through 0.2 μm filter. Under these conditions, the assay was linear with time and able to detect FBPase inhibition after spectrophotometric read-out at 620 nm.
Consider `CNC(=O)c1cc(C(F)(F)F)cc(NC(=O)NS(=O)(=O)c2cc(C)c(CCO)s2)n1` [Compound 97, Methyl-6-[({[5-(2-hydroxyethyl)-4-methyl-2-thienyl]sulfonyl}carbamoyl)amino]-4-(trifluoromethyl)pyridine-2-carboxamide], for which the half-inhibitory concentration (IC50) – broadly, the concentration needed to halve the response being measured – came to 278 nM.
Regarding `Nc1cc(Br)cc(NC(=O)NS(=O)(=O)c2ccc3c(c2)OCCO3)n1` [Compound 37, N-[(6-Amino-4-bromopyridin-2-yl)carbamoyl]-2,3-dihydro-1,4-benzodioxine-6-sulfonamide], the IC50 stood at 574 nM.
Under `CNC(=O)Nc1cc(C(=O)NC)cc(NC(=O)NS(=O)(=O)c2cc(C)c(CCOC)s2)n1` [Compound 103, 2-[({[5-(2-Methoxyethyl)-4-methyl-2-thienyl]sulfonyl}carbamoyl)amino]-N-methyl-6-[(methylcarbamoyl)amino]isonicotinamide] stands 5700 nM.
Under `COCCOc1ccc(S(=O)(=O)NC(=O)Nc2cc(Br)cc(NCC(F)F)n2)cc1C` [Compound 51, N-({4-Bromo-6-[(2,2-difluoroethyl)amino]pyridin-2-yl}carbamoyl)-4-(2-methoxyethoxy)-3-methylbenzenesulfonamide] stands 1110 nM; under `COCCc1sc(S(=O)(=O)NC(=O)Nc2cc(OC)cc(-c3noc(C)n3)n2)cc1C` [Compound 116], 1480 nM; under `CNC(=O)Nc1cc([S+](C)[O-])cc(NC(=O)NS(=O)(=O)c2cc(C)c(CCOC)s2)n1` (stereo not shown) [Compound 94, 5-(2-Methoxyethyl)-4-methyl-N-({6-[(methylcarbamoyl)amino]-4-(methylsulfinyl)pyridin-2-yl}carbamoyl)thiophene-2-sulfonamide], 1600 nM.
Consider `Cc1cccc(S(=O)(=O)NC(=O)Nc2cccc(Cl)n2)c1` [Compound 72, N-[(6-Chloropyridin-2-yl)carbamoyl]-3-methylbenzenesulfonamide], for which the IC50 came out at 4600 nM.
Under `COCCc1sc(S(=O)(=O)NC(=O)Nc2cc(C)cc(N3CCc4ccccc4C3)n2)cc1C` [Compound 56, N-{[6-(3,4-Dihydroisoquinolin-2(1H)-yl)-4-methylpyridin-2-yl]carbamoyl}-5-(2-methoxyethyl)-4-methylthiophene-2-sulfonamide] stands 1730 nM.
In the case of `COCCc1sc(S(=O)(=O)NC(=O)Nc2cc(C)cc(C3CCc4ccccc4C3)n2)cc1C` (stereo not shown) [Compound 46, 5-(2-Methoxyethyl)-4-methyl-N-{[4-methyl-6-(1,2,3,4-tetrahydronaphthalen-2-yl)pyridin-2-yl]carbamoyl}thiophene-2-sulfonamide], the IC50 was 937 nM.
The figure for `O=C(Nc1cc(Br)cc(NCC(F)F)n1)NS(=O)(=O)c1cccc(Cl)c1` [Compound 41, N-({4-Bromo-6-[(2,2-difluoroethyl)amino]pyridin-2-yl}carbamoyl)-3-chlorobenzenesulfonamide] is 696 nM.
On to `CCOc1cc(NC(=O)NC)nc(NC(=O)NS(=O)(=O)c2cc(C)c(CCOC)s2)c1` [Compound 35, N-({4-Ethoxy-6-[(methylcarbamoyl)amino]pyridin-2-yl}carbamoyl)-5-(2-methoxyethyl)-4-methylthiophene-2-sulfonamide], for which the IC50 was found to be 494 nM.
As to `CCOc1cc(NC(N)=O)nc(NC(=O)NS(=O)(=O)c2cc(C)c(CCOC)s2)c1` [Compound 40, N-{[6-(Carbamoylamino)-4-ethoxypyridin-2-yl]carbamoyl}-5-(2-methoxyethyl)-4-methylthiophene-2-sulfonamide], the IC50 was 631 nM.
The figure for `Cc1cc(S(=O)(=O)NC(=O)Nc2cc(C(F)(F)F)ccn2)sc1CCO` [Compound 78, 5-(2-Hydroxyethyl)-4-methyl-N-{[4-(trifluoromethyl)pyridin-2-yl]carbamoyl}thiophene-2-sulfonamide] is 906 nM; for `CNC(=O)Nc1cc(S(C)(=O)=O)cc(NC(=O)NS(=O)(=O)c2cc(C)c(CCOC)s2)n1` [Compound 50, 5-(2-Methoxyethyl)-4-methyl-N-({6-[(methylcarbamoyl)amino]-4-(methylsulfonyl)pyridin-2-yl}carbamoyl)thiophene-2-sulfonamide] it is 1090 nM; for `COCCc1sc(S(=O)(=O)NC(=O)Nc2cc(Br)cc(N3CCOCC3)n2)cc1C` [Compound 31, N-[(4-Bromo-6-morpholin-4-ylpyridin-2-yl)carbamoyl]-5-(2-methoxyethyl)-4-methylthiophene-2-sulfonamide] it is 429 nM.
With `CNC(=O)Nc1cc(OC)cc(NC(=O)NS(=O)(=O)c2csc(C)c2)n1` [Compound 9, N-[[[4-methoxy-6-[[(methylamino)carbonyl]amino]-2-pyridinyl]amino]carbonyl]-5-methyl-3-thiophenesulfonamide], the 50% inhibitory concentration (IC50) is 115 nM.
The figure for `CCOc1cc(NC(=O)NS(=O)(=O)c2cc(C)c(CCOC)s2)nc(NC(=O)N(C)C)c1` [Compound 68, N-({6-[(Dimethylcarbamoyl)amino]-4-ethoxypyridin-2-yl}carbamoyl)-5-(2-methoxyethyl)-4-methylthiophene-2-sulfonamide] is 3050 nM.
The figure for `CNC(=O)Nc1cc(C#N)cc(NC(=O)NS(=O)(=O)c2cc(C)c(CCOC)s2)n1` [Compound 23, N-({4-Cyano-6-[(methylcarbamoyl)amino]pyridin-2-yl}carbamoyl)-5-(2-methoxyethyl)-4-methylthiophene-2-sulfonamide] is 242 nM; for `O=C(Nc1cc(Br)ccn1)NS(=O)(=O)c1ccc(Cl)cc1` [Compound 69, N-[(4-Bromopyridin-2-yl)carbamoyl]-4-chlorobenzenesulfonamide] it is 3070 nM; for `CNC(=O)Nc1cc(OC)cc(NC(=O)NS(=O)(=O)c2cc3cc(OC)ccc3s2)n1` [Compound 13, 5-Methoxy-N-({4-methoxy-6-[(methylcarbamoyl)amino]pyridin-2-yl}carbamoyl)-1-benzothiophene-2-sulfonamide] it is 148 nM.
The figure for `COCCc1sc(S(=O)(=O)NC(=O)Nc2cc(SC)cc(Br)n2)cc1C` [Compound 25, N-{[6-Bromo-4-(methylthio)pyridin-2-yl]carbamoyl}-5-(2-methoxyethyl)-4-methylthiophene-2-sulfonamide] is 260 nM; for `COCCc1sc(S(=O)(=O)NC(=O)Nc2cc(C(N)=O)cc(N)n2)cc1C` [Compound 102, 2-Amino-6-[({[5-(2-methoxyethyl)-4-methyl-2-thienyl]sulfonyl}carbamoyl)amino]isonicotinamide] it is 42000 nM.
On to `CC(=O)OCCc1sc(S(=O)(=O)NC(=O)Nc2cc(C(F)(F)F)cc(C)n2)cc1C` [Compound 111, 2-{3-methyl-5-[({[6-methyl-4-(trifluoromethyl)pyridin-2-yl]carbamoyl}amino)sulfonyl]-2-thienyl}ethyl acetate], for which the half-maximal inhibitory concentration (IC50) came out at 345 nM.
Regarding `CNC(=O)Nc1cc(OC)cc(NC(=O)NS(=O)(=O)c2cc3cc(C)ccc3s2)n1` [Compound 7, N-({4-Methoxy-6-[(methylcarbamoyl)amino]pyridin-2-yl}carbamoyl)-5-methyl-1-benzothiophene-2-sulfonamide], the IC50 was 100 nM.
In the case of `CNC(=O)Nc1cc(OC)cc(NC(=O)NS(=O)(=O)c2cn(C)c3c(OCC(=O)N(C)C)cccc23)n1` [Compound 70, 2-[(3-{[({4-Methoxy-6-[(methylcarbamoyl)amino]pyridin-2-yl}carbamoyl)amino]sulfonyl}-1-methyl-1H-indol-7-yl)oxy]-N,N-dimethylacetamide], the 50% inhibitory concentration (IC50) amounted to 3430 nM.
